Tests used:
RXRα = target: T1, RXRα (Homo sapiens, UniProt P19793); test: RXRα induction in HEK 293 cells (transient transfection, luciferase reporter); assay type: cell-based
T1 construct: expressed in transfected cells; host or cells: HEK 293 cells
T1 sequence (P19793 1-462): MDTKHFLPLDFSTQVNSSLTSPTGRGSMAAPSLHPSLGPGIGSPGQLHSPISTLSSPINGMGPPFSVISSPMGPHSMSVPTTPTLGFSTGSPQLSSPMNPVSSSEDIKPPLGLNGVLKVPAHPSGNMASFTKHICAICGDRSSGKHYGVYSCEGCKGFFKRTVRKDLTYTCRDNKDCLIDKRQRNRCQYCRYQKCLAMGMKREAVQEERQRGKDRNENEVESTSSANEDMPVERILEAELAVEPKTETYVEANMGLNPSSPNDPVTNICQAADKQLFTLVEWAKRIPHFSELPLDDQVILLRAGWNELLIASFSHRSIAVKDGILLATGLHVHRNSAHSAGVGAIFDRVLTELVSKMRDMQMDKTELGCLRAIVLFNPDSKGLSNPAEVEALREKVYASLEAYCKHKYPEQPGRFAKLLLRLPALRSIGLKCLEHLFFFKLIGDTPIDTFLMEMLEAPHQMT
Procedure: Table 2 provides QPCR data (ABI 7700 Sequence Detection System) for exemplary compounds of formula I evaluated for RXR induction in HEK 293 cells, following a general protocol, briefly described below. See Naeger et al. (1999) J. Biol. Chem. 274:1875-1878 for a related cell-based assay.
DNA constructs containing a luciferase reporter plasmid and another plasmid which contained an activation domain (e.g., RXRα) were transiently transfected into HEK 293 cells. The cells were treated with the compounds and luciferase activity was measured using a luminometer. Fold induction was determined by comparing the luciferase activity of treated cells to the activity of untreated cells.

UCP3 protein = UCP3 protein induction in vivo in skeletal muscle after oral dosing (Western blot); conditions: skeletal muscle tissue from Sprague-Dawley rats
Procedure: UCP3 protein was induced 2- to 3-fold in vivo (skeletal muscle tissue from Sprague-Dawley rats) after oral dosing with compound 1 (Western blot).
1. Isolate rat or mouse skeletal muscle and snap freeze in liquid nitrogen. Grind into a fine powder using mortar and pestle and transfer to an eppendorf tube.
2. Resuspend skeletal muscle in Buffer 1 (0.15 mM MgCl2, 10 mM KCl, 10 mM Tris-HCl, pH 6.7, stored at 4° C.).
3. Place resuspended cells on ice for 2 min. Homogenize using either Potter-Eleuhjem Teflon homogenizer and glass dounce or using hand held homogenizer for 2 min.
4. Add sucrose (1 M) to a final concentration of 0.25 M and spin at 1500 g (4000 rpm in microfuge) for 3 min. to remove nuclei.
5. Take the supernatant fraction and pellet the mitochondria by centrifugation at 10000 rpm for 10 min.
6. Resuspend pellet in 500 μl Buffer 2 (0.15 mM MgCl2, […], 10 mM Tris-HCl, pH 6.7, stored at 2-4° C.).
9. Resuspend final mitochondrial pellet in 2 7 μl Buffer 3 (0.25 M Sucrose, 10 mM Tris-acetate, pH 7.0, 3 μl 10× protease inhibitor cocktail (BMB), stored at 4° C.).
10. Determine protein concentration with BioRad protein assay dye (Bradford Reagent). 1 μl protein in 100 μl 1× Bradford Reagent. OD595 with BSA standard curve (1 μg/μl-50 μg/μl).
For antiUCP3 Westerns use 60 μg protein. Run precast 10% gels until dye front is about 1 cm from bottom of gel. […]

UCP3 = UCP3 RNA induction in rat L6 cells (QPCR); assay type: cell-based
Procedure: Table 1 provides QPCR data (ABI 7700 Sequence Detection System) for exemplary compounds of formula I evaluated for UCP3 RNA induction in L6 cells from rats. The assay is described in Example 14.4, below.
Rat UCP3 (L6 cells) QPCR Protocol
1. (Day1) Plate 300,000 L6 cells per well (24 well plate) in Minimum Essential Medium-Alpha Medium with 2% FBS and Antibiotic/Antimycotic Solution added. Incubate for 2 days and change to fresh medium (Day3). Incubate 1 more day.
2. (Day 4) Add compound at desired concentration. Incubate for 18-20 h. 2 wells per compound. 4-wells of DMSO controls per plate.
3. (Day 5) Prepare RNA from cells: • (1) Aspirate media and lyse cells directly on plate by adding 500 μL of Trizol Reagent (Gibco BRL) to each well and passing the lysate several times through a pipette. Transfer lysate to eppendorf tubes (combining the lysate from identical compound treatments). • (2) Add 200 μL of chloroform to the 1 mL of lysate. Vortex to mix and incubate at room temp. for 2-3 min. Spin samples in a microfuge at 12,000 rpm for 15 min. at 4° C. • (3) Transfer the aqueous phase to a fresh tube. Precipitate the RNA from the aqueous phase by adding 500 μL of isopropanol and mixing well. Incubate at −20° C. for at least 15 min. Pellet the RNA by spinning at 12,000 rpm for 10 min. at 4° C. • (4) Remove the supernatant and wash the RNA pellet with 500 μL of 75% ethanol. Spin at 10,000 rpm for 5 min. at 4° C. • (5) Remove the supernatant and allow pellet to air dry briefly. Dissolve RNA in 15 μL of RNase-free water. Store at −80° C. Electrophorese some RNA to check quality.
4. QPCR (50 μL reactions in 96 well MicroAmp Optical Plate): TaqMan Gold RT-PCR Reagents (PE catalog #N808-0232): OD RNA and dilute to 5 ng/μL in RNase-free water. All samples run in duplicate with UCP3 and m18S probe/primers
Add 40 μL of Reaction Mix to 10 μL of diluted RNA (50 ng total) on QPCR plate PCR Cycling Parameters • 48° C. 30 min. • 95° C. 10 min. • 40 cycles: 95° C. 15 sec. • 58° C. 1.5 min. QPCR Primers/Probes

In the case of `Cc1c(C(=O)O)cnn1-c1nc(-c2cccc(C(F)(F)F)c2)cs1` [Compound 1, 1-[4-(3-(Trifluoromethyl)phenyl)thiazol-2-yl]-5-methylpyrazole-4-carboxylic acid], the “RXRα RNA induction at 1 μM” value (RXRα; 1 μM) is reported as “++ (++ denotes greater than 5-fold induction)”, the “RXRα RNA induction at 3 μM” value (RXRα; 3 μM) is reported as “+ (+ denotes 5-fold or less induction)” and the “RXRα RNA induction at 10 μM” value (RXRα; 10 μM) is reported as “+ (+ denotes 5-fold or less induction)”. For the same compound, the UCP3 protein induction (UCP3 protein) was 2- to 3 fold, the fold induction at 10 µM (UCP3) was over 10 and the melting point was 226.7 to 227.5 °C.

Reference: patent US7358267B2, “Bis-aryl thiazole derivatives” (Amgen Inc., priority 2001, dated 2008)
